Columns and labels:
[1] = tested on: biosynthesis of cholesterol; conditions: background; cited from earlier work
HMG CoA reductase [2] = conditions: background, U.S. Pat. Nos. 4,049,495, 4,137,332, 3,983,140; cited from earlier work
HMG CoA reductase [3] = target: T1, HMG CoA reductase (Rattus norvegicus, UniProt P51639); assay: Inhibition of HMG CoA reductase catalysis in rat liver microsomes (radioactive assay of mevalonate production); type: biochemical; conditions: for IC50: pH 6.8, 37° C., 15-min. incubation, four concentrations in triplicate, 14C-HMG CoA substrate
T1 construct: measured with rat liver microsomes; from tissue; host or cells: rat liver microsomes
T1 sequence (P51639 1-887): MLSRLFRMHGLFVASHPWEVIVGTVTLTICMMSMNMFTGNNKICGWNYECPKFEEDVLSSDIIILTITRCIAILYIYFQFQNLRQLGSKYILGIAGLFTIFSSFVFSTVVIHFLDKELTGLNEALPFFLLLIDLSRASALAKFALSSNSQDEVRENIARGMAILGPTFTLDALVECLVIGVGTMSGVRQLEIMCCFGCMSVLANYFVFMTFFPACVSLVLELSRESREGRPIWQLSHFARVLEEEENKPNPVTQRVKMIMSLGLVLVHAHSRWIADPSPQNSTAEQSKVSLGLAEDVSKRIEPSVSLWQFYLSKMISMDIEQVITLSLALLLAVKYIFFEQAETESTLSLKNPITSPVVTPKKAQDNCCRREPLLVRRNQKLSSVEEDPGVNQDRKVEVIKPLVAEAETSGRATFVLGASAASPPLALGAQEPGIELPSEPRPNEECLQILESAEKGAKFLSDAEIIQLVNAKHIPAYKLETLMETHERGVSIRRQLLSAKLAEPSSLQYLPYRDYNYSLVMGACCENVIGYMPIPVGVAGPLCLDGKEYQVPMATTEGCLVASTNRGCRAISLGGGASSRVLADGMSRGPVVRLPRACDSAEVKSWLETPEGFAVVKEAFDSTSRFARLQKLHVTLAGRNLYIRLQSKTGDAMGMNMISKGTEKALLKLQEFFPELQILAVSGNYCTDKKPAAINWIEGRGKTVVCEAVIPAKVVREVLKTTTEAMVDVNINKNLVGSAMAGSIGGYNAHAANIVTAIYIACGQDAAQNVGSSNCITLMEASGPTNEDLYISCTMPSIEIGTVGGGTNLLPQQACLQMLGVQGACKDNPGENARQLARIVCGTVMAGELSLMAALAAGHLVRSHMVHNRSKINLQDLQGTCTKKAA
Experimental: The antihypercholesterolemic activity of each novel compound was measured using the following test. The potency of compactin and each analog as an inhibitor of HMG CoA reductase catalysis was measured with rat liver microsomes. […] Four concentrations of each compound ranging over four appropriate orders of magnitude were tested. The effect on the initial velocity of mevalonate production was determined in a radioactive assay system. […] All components but the ^14 C-HMG CoA were preincubated at 37° C. for 10 min. The inhibitor in 10 μL of DMSO was then added (control samples received DMSO only) and a 15-min. incubation was initiated by the addition of substrate. Catalysis was terminated with 33% aqueous KOH (50 μL). After 30 min., 25 μL of aqueous 0.05% bromophenol, 70000 dpm of (5-^3 H)-mevalono-lactone in 25 μL of H2 O (recovery standard) and 90 μL of 5 N aqueous HCl were added. […] Quantities of collected ^14 C-mevalonate mevalonate were corrected for ^3 -mevalonate recovery before conversion to catalytic rates. Each inhibitor concentration was assayed in triplicate and conversion of (S)-HMG Coenzyme A to product was always less than 20%. Rates in the presence of inhibitors were compared to control rates to generate % inhibition values. When % inhibition was plotted against inhibitor concentration, the resulting curve provided an IC50 value for the inhibitor in question, IC50 being defined as the concentration required to inhibit the enzyme by 50% of control.

| IC50 (HMG CoA reductase [3]) [µM] | SMILES | inhibition of the biosynthesis of cholesterol (in words) [1] | inhibition of HMG CoA reductase (in words) (HMG CoA reductase [2]) | antihypercholesterolemic activity (HMG CoA reductase inhibition, in words) (HMG CoA reductase [3]) |
| --- | --- | --- | --- | --- |
| 0.009 | CC[C@H](C)C(=O)O[C@H]1CCC=C2C=C[C@H](C)[C@H](CC[C@@H]3C[C@@H](O)CC(=O)O3)[C@H]21 [Formula 1] | potent as inhibitors of the biosynthesis of cholesterol | display utility as inhibitors of the enzyme hydroxymethylglutaryl coenzyme A reductase |  |
|  | CC[C@H](C)C(=O)O[C@H]1C[C@@H](C)C=C2C=C[C@H](C)[C@H](CC[C@@H]3C[C@@H](O)CC(=O)O3)[C@H]21 [Formula 2] | potent as inhibitors of the biosynthesis of cholesterol | display utility as inhibitors of the enzyme hydroxymethylglutaryl coenzyme A reductase |  |
| 0.23 | CC[C@H](C)C(=O)O[C@H]1CCC=C2C=C[C@H](C)[C@H](/C=C/C(=O)C[C@@H](O)CC(=O)O)[C@H]21 [Formula 41*] |  |  | possessing antihypercholesterolemic activity |
| 0.016 | CC[C@H](C)C(=O)O[C@H]1CCC=C2C=C[C@H](C)[C@H](CCC(=O)C[C@@H](O)CC(=O)O)[C@H]21 [Formula 53] |  |  | possessing antihypercholesterolemic activity |
| 0.3 | CC[C@H](C)C(=O)O[C@H]1CCC=C2C=C[C@H](C)[C@H](COC(=O)C[C@@H](O)CC(=O)O)[C@H]21 [Formula 63*, (1S,2S,8S,8aR)-1-[(S)-(3-Hydroxy-4-carboxybutyryl)oxymethyl]-2-methyl-8-[(S)-(2methylbutyryl)oxy]-1,2,6,7,8a-hexahydronaphthalene] |  |  | possessing antihypercholesterolemic activity |
